{
  "source": "patent US20200068887A1",
  "about": "“TREATMENT FOR REMOVING ECTOPARASITES FROM FISH” (priority 2016, published 2020)",
  "key": {"[1]": {"test_system": "farmed Atlantic salmon", "test": "Observation of fish during field treatment", "format": "in vivo", "conditions": "20 ppm, 60 minutes, well boat", "method": "The effectiveness of imidacloprid against pre-adult and adult stages of L. salmonis and Caligus sp. infections on farmed Atlantic salmon was investigated by performing pre- and post-treatment sea lice counts on salmon undergoing a treatment with imidacloprid. This trial was conducted at a commercial salmon farm in Norway. The salmon were pumped onto a well boat and were exposed to 20 ppm imidacloprid for 60 minutes. The average weight of the salmon was 3.5 kg and the average number of salmon per pen was 180,000. 30 fish per pen were assessed for L. salmonis and Caligus sp., and the number of each L. salmonis life stage found was recorded. This was performed within 24 hours prior to treatment, and within 24 hours after treatment.\nThe numbers of sea lice observed per fish for this trial for each of the four tested pens according to sea lice life cycle state, pre- or post-administration of active are presented in Table 5."}, "[2]": {"test_system": "sea lice", "test": "Comparison on isolated sea lice (in vitro bath exposure)", "conditions": "60 min exposure; for % effect / Immobilised / Live: registered approx. 20 h after end of exposure", "method": "Both pre-adult and adult stages (mobile stages) of both sexes were used, and they were equally distributed among groups. The sea lice were exposed to imidacloprid for 60 minutes, azamethiphos for 60 minutes and deltamethrin for 30 minutes in one litre baths at a range of concentrations (Tables 6, 7 and 8). The sea lice were transferred to clean aerated seawater after treatment. The temperature of the seawater during the experiment was 12° C., but during exposure the temperature raised to approx. 14° C. in regimes exposed for 60 min. (imidacloprid and azamethiphos) and to 13° C. for the regime exposed in 30 minutes (deltamethrin).\nThe numbers of live and immobilised (including killed) lice in each regime were registered approximately 20 h after end of exposure. Each louse was individually investigated."}, "[3]": {"test_system": "salmon louse", "test": "Bath treatment of lice-infected Atlantic salmon, percent lice removed", "format": "in vivo", "conditions": "12° C.", "method": "To determine the concentration- and time-dependence of imidacloprid treatment in vivo, Atlantic salmon (average of 320.9 g) were challenged with imidacloprid in seawater (32.5%0 salinity) at 12° C. The water level in the tank was lowered and aeration was employed during administration of the active. The salmon louse copepodid culture was counted and adjusted to obtain a target level of around 40 copepodids per fish in the challenge tank at each challenge time point.\nSalmon lice on the fish were counted using standard methods. Only lice on the fish's outer surface, not including gills and oral/buccal cavities, were investigated.\nNumbers of dissociated lice in tank water or attached to the tank walls were recorded. Lice in the tank water were collected and assessed for ability to attach by suction to a smooth plastic surface immediately after treatment and again after 30-60 minutes (to assess possible revival). Live and viable lice were also collected from the mock-treated control groups for reference and held in revival chambers for the same period of time to assess the system.\nThe test solutions of the active were prepared (added and homogenised with seawater) and administered to a treatment volume of 40 litres.\nThree sea lice-infected fish from the holding tank were randomly gathered and carefully steered into a barrel forming an inner compartment (diameter=34.5-40 cm; height=54 cm) that was submerged in the tank and in which the base has been replaced with a plastic mesh screen with 9 mm^2 square holes.\nThe fish were transferred to the inner compartment within 3 minutes of each test start. The inner compartment was suspended/submerged in the holding tank pending treatment. Treatments and mock treatments were implemented by draining the inner compartment with fish and transferring it to a barrel containing the test solution. Treatments/mock treatments were performed in static water with aeration/oxygenation. Aeration was adjusted to set the oxygen saturation to 70-100%.\nTo terminate the treatment, the inner compartment with treated fish was lifted to the surface and drained, then fish were transferred directly and without water to a second basin with a lethal overdose of anaesthetic and left until dead. All lice remaining on these fish and lice that fell off in the anaesthetic bath were recorded.\nExposure times with imidacloprid ranged from 3 to 60 minutes, and doses ranged from 20 ppm to 200 ppm.\nNegative control groups at 3- and 60 minutes were duplicated. Superscript numbers denote the total number of lice on the 3 fish in each test.\nBy way of comparison, fish infected with sea lice from the same sources were treated with azamethiphos at 0.1 mg/l and deltamethrin at 0.2 μ/l for 30 minutes, per the recommended dosage regimes. Treatments were carried out under similar conditions as those treated with imidacloprid. A mock-treatment control was also administered. Each treatment condition was administered in duplicate.\nSuperscript numbers denote the total number of lice on the 3 fish in each test."}, "[4]": {"conditions": "isolated sea lice, immobilisation approx. 20 h after exposure"}},
  "note": "“And” between values parts separate entries of the source, which are not always exact repeats. Identical values can stand only once.",
  "data": [
    {"smiles": "O=[N+]([O-])NC1=NCCN1Cc1ccc(Cl)nc1", "note": "[imidacloprid]", "values": [
      {"measurement": "adverse behaviours of fish throughout treatment", "setting": "[1]", "result": "no adverse behaviours seen"},
      {"measurement": "% effect", "setting": "[2]; imidacloprid 5 ppm", "result": 30, "unit": "%"},
      {"measurement": "Immobilised", "setting": "[2]; imidacloprid 5 ppm", "result": 3},
      {"measurement": "Live", "setting": "[2]; imidacloprid 5 ppm", "result": 7},
      {"measurement": "% effect", "setting": "[2]; imidacloprid 10 ppm", "result": "40% and 50%"},
      {"measurement": "Immobilised", "setting": "[2]; imidacloprid 10 ppm", "result": "4 and 5"},
      {"measurement": "Live", "setting": "[2]; imidacloprid 10 ppm", "result": "6 and 5"},
      {"measurement": "% effect", "setting": "[2]; imidacloprid 15 ppm", "result": 100, "unit": "%"},
      {"measurement": "Immobilised", "setting": "[2]; imidacloprid 15 ppm", "result": 10},
      {"measurement": "Live", "setting": "[2]; imidacloprid 15 ppm", "result": 0},
      {"measurement": "% effect", "setting": "[2]; imidacloprid 20 ppm", "result": 100, "unit": "%"},
      {"measurement": "Immobilised", "setting": "[2]; imidacloprid 20 ppm", "result": 10},
      {"measurement": "Live", "setting": "[2]; imidacloprid 20 ppm", "result": 0},
      {"measurement": "% effect", "setting": "[2]; imidacloprid 30 ppm", "result": 100, "unit": "%"},
      {"measurement": "Immobilised", "setting": "[2]; imidacloprid 30 ppm", "result": 10},
      {"measurement": "Live", "setting": "[2]; imidacloprid 30 ppm", "result": 0},
      {"measurement": "estimated EC90 value", "setting": "[2]; [4]", "result": 14.4, "unit": "ppm"},
      {"measurement": "estimated ECso value", "setting": "[2]; [4]", "result": 7.6, "unit": "ppm"},
      {"measurement": "percentage lice removed from fish after treatment relative to total numbers of lice", "setting": "[3]; 20 ppm, 30 minutes, total 36 lice on 3 fish", "result": "63.9^36%"},
      {"measurement": "percentage lice removed from fish after treatment relative to total numbers of lice", "setting": "[3]; 20 ppm, 60 minutes, total 27 lice on 3 fish", "result": "74.1^27%"},
      {"measurement": "percentage lice removed from fish after treatment relative to total numbers of lice", "setting": "[3]; 50 ppm, 30 minutes, total 23 lice on 3 fish", "result": "91.3^23%"},
      {"measurement": "percentage lice removed from fish after treatment relative to total numbers of lice", "setting": "[3]; 100 ppm, 3 minutes, total 43 lice on 3 fish", "result": "7.0^43%"},
      {"measurement": "percentage lice removed from fish after treatment relative to total numbers of lice", "setting": "[3]; 100 ppm, 15 minutes, total 38 lice on 3 fish", "result": "73.7^38%"},
      {"measurement": "percentage lice removed from fish after treatment relative to total numbers of lice", "setting": "[3]; 200 ppm, 5 minutes, total 34 lice on 3 fish", "result": "55.9^34%"},
      {"measurement": "percentage lice removed from fish after treatment relative to total numbers of lice", "setting": "[3]; 200 ppm, 15 minutes, total 47 lice on 3 fish", "result": "91.5^47%"}
    ]}
  ]
}
